Assays:
Hepatocyte = test: Intrinsic clearance in human hepatocytes at 1 uM by LC-MS/MS analysis; format: ADME, cell-based
[1] = Cytotoxicity against human T cells assessed as cell proliferation
[2] = molecular target: Maternal embryonic leucine zipper kinase (Homo sapiens, UniProt Q14680); test: Inhibition of MELK (unknown origin) at 1 uM
[3] = molecular target: Serine/threonine-protein kinase PLK1 (Homo sapiens) (UniProt P53350); test: Inhibition of PLK1 (unknown origin) at 1 uM
[4] = molecular target: Serine/threonine-protein kinase PLK2 (Homo sapiens) (UniProt Q9NYY3); test: Inhibition of PLK2 (unknown origin) at 1 uM
[5] = molecular target: Mast/stem cell growth factor receptor Kit (Homo sapiens) (UniProt P10721); test: Inhibition of Kit (unknown origin) at 1 uM
[6] = molecular target: Mitogen-activated protein kinase kinase kinase 9 (Homo sapiens) (UniProt P80192); test: Inhibition of MLK1 (unknown origin) at 1 uM
hERG (KCNH2) = hERG (KCNH2) (Homo sapiens, UniProt Q12809); test: Inhibition of human ERG at 10 uM
Salmonella typhimurium [7] = test: Genotoxicity in Salmonella typhimurium TA98 by Ames test in presence of S9 fraction; format: toxicity, organism-based; conditions: salmonella enterica subsp. enterica serovar typhimurium
Salmonella typhimurium [8] = test: Genotoxicity in Salmonella typhimurium TA98 by Ames test in absence of S9 fraction; format: toxicity, organism-based; conditions: salmonella enterica subsp. enterica serovar typhimurium
[9] = molecular target: Mitogen-activated protein kinase kinase kinase kinase 4 (Homo sapiens) (UniProt O95819); test: Inhibition of MAP4K4 (unknown origin) at 1 uM
[10] = molecular target: Serine/threonine-protein kinase PAK 6 (Homo sapiens) (UniProt Q9NQU5); test: Inhibition of PAK6 (unknown origin) at 1 uM
[11] = molecular target: Aurora kinase A (Homo sapiens) (UniProt O14965); test: Inhibition of AuroraA (unknown origin) at 1 uM
[12] = molecular target: MAP kinase-interacting serine/threonine-protein kinase 1 (Homo sapiens) (UniProt Q9BUB5); test: Inhibition of MKNK1 (unknown origin) at 1 uM
[13] = molecular target: Fibroblast growth factor receptor 1 (Homo sapiens) (UniProt P11362); test: Inhibition of FGFR1 (unknown origin) at 1 uM
[14] = molecular target: Myotonin-protein kinase (Homo sapiens) (UniProt Q09013); test: Inhibition of DMPK (unknown origin) at 1 uM
[15] = molecular target: Serine/threonine-protein kinase N1 (Homo sapiens) (UniProt Q16512); test: Inhibition of PRK1 (unknown origin) at 1 uM
[16] = molecular target: Serine/threonine-protein kinase TAO1 (Homo sapiens) (UniProt Q7L7X3); test: Inhibition of TAO1 (unknown origin) at 1 uM
[17] = molecular target: Mitogen-activated protein kinase kinase kinase kinase 5 (Homo sapiens) (UniProt Q9Y4K4); test: Inhibition of KHS1 (unknown origin) at 1 uM
[18] = molecular target: Ephrin type-B receptor 3 (Homo sapiens) (UniProt P54753); test: Inhibition of EphB3 (unknown origin) at 1 uM
[19] = molecular target: Tyrosine-protein kinase receptor TYRO3 (Homo sapiens) (UniProt Q06418); test: Inhibition of Rse (unknown origin) at 1 uM
[20] = molecular target: Casein kinase II subunit alpha (Homo sapiens) (UniProt P68400); test: Inhibition of CK2 alpha1 (unknown origin) at 1 uM
[21] = molecular target: Mitogen-activated protein kinase kinase kinase 20 (Homo sapiens) (UniProt Q9NYL2); test: Inhibition of ZAK (unknown origin) at 1 uM
[22] = molecular target: Platelet-derived growth factor receptor alpha (Homo sapiens) (UniProt P16234); test: Inhibition of PDGFR alpha (unknown origin) at 1 uM
[23] = molecular target: Death-associated protein kinase 1 (Homo sapiens) (UniProt P53355); test: Inhibition of DAPK1 (unknown origin) at 1 uM
[24] = molecular target: Receptor-interacting serine/threonine-protein kinase 2 (Homo sapiens) (UniProt O43353); test: Inhibition of RIPK2 (unknown origin) at 1 uM
[25] = molecular target: Dual specificity mitogen-activated protein kinase kinase 3 (Homo sapiens) (UniProt P46734); test: Inhibition of MEK3 (unknown origin) at 1 uM
[26] = molecular target: Activin receptor type-1 (Homo sapiens) (UniProt Q04771); test: Inhibition of ALK2 (unknown origin) at 1 uM
[27] = molecular target: Protein kinase C alpha type (Homo sapiens) (UniProt P17252); test: Inhibition of PKC alpha (unknown origin) at 1 uM
[28] = molecular target: Serine/threonine-protein kinase PAK 3 (Homo sapiens) (UniProt O75914); test: Inhibition of PAK3 (unknown origin) at 1 uM
[29] = molecular target: Serine/threonine-protein kinase PLK3 (Homo sapiens) (UniProt Q9H4B4); test: Inhibition of PLK3 (unknown origin) at 1 uM
[30] = molecular target: Insulin receptor (Homo sapiens) (UniProt P06213); test: Inhibition of InsR (unknown origin) at 1 uM
[31] = molecular target: TGF-beta-activated kinase 1 and MAP3K7-binding protein 1 (Homo sapiens) (UniProt Q15750); test: Inhibition of TAK1-TAB1 (unknown origin) at 1 uM
[32] = molecular target: Serine/threonine-protein kinase 16 (Homo sapiens) (UniProt O75716); test: Inhibition of STK16 (unknown origin) at 1 uM
[33] = molecular target: Ephrin type-A receptor 2 (Homo sapiens) (UniProt P29317); test: Inhibition of EphA2 (unknown origin) at 1 uM
[34] = molecular target: Angiopoietin-1 receptor (Homo sapiens) (UniProt Q02763); test: Inhibition of Tie2 (unknown origin) at 1 uM
[35] = molecular target: Tyrosine-protein kinase Fes/Fps (Homo sapiens) (UniProt P07332); test: Inhibition of Fes (unknown origin) at 1 uM
[36] = molecular target: Insulin-like growth factor 1 receptor (Homo sapiens) (UniProt P08069); test: Inhibition of IGF1R (unknown origin) at 1 uM
[37] = molecular target: Tyrosine-protein kinase CSK (Homo sapiens) (UniProt P41240); test: Inhibition of CSK (unknown origin) at 1 uM
[38] = molecular target: Dual specificity protein kinase CLK1 (Homo sapiens) (UniProt P49759); test: Inhibition of CLK1 (unknown origin) at 1 uM
[39] = molecular target: Dual specificity tyrosine-phosphorylation-regulated kinase 1A (Homo sapiens) (UniProt Q13627); test: Inhibition of DYRK1A (unknown origin) at 1 uM
[40] = molecular target: Protein-tyrosine kinase 2-beta (Homo sapiens) (UniProt Q14289); test: Inhibition of FAK2 (unknown origin) at 1 uM
[41] = molecular target: Serine/threonine-protein kinase 3 (Homo sapiens) (UniProt Q13188); test: Inhibition of MST2 (unknown origin) at 1 uM
[42] = molecular target: Calcium/calmodulin-dependent protein kinase kinase 1 (Homo sapiens) (UniProt Q8N5S9); test: Inhibition of CAMKK1 (unknown origin) at 1 uM
[43] = molecular target: Serine/threonine-protein kinase D1 (PRKD1) (Homo sapiens) (UniProt Q15139); test: Inhibition of PKD1 (unknown origin) at 1 uM

Sequence of Activin receptor type-1 (Homo sapiens) (Q04771 whole entry): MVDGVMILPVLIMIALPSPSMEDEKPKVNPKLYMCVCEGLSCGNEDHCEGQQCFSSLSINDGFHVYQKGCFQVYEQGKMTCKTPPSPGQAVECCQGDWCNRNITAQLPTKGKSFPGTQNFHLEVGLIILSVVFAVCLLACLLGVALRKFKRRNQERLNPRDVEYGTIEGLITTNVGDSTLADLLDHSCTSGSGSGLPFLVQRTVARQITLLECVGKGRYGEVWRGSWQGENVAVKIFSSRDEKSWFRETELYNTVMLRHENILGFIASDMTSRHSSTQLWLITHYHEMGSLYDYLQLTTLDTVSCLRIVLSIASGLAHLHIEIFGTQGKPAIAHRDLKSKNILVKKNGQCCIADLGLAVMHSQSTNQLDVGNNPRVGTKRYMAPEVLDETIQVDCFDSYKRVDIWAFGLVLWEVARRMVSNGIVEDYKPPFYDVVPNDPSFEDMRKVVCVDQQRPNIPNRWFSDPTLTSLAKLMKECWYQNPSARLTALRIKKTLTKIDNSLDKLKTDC
Sequence of Maternal embryonic leucine zipper kinase (Q14680 whole entry, looked up): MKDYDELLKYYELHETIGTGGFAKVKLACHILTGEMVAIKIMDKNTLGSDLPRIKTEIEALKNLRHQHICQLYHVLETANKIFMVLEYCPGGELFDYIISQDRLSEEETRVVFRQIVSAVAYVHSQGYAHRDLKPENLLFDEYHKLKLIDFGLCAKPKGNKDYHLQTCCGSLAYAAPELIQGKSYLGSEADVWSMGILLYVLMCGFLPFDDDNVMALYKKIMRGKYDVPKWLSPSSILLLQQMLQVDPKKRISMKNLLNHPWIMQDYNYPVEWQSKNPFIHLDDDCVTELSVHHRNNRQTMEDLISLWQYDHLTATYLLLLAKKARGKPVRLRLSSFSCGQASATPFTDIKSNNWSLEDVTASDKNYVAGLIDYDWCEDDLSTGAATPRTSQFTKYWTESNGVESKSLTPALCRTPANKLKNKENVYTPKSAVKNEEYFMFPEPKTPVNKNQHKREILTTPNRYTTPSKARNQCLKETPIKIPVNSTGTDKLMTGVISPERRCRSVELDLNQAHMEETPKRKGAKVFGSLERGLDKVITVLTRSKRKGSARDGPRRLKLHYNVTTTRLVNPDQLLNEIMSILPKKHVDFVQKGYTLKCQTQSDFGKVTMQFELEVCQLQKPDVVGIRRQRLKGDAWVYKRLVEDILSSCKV
Sequence of Serine/threonine-protein kinase PAK 3 (Homo sapiens) (O75914 whole entry, looked up): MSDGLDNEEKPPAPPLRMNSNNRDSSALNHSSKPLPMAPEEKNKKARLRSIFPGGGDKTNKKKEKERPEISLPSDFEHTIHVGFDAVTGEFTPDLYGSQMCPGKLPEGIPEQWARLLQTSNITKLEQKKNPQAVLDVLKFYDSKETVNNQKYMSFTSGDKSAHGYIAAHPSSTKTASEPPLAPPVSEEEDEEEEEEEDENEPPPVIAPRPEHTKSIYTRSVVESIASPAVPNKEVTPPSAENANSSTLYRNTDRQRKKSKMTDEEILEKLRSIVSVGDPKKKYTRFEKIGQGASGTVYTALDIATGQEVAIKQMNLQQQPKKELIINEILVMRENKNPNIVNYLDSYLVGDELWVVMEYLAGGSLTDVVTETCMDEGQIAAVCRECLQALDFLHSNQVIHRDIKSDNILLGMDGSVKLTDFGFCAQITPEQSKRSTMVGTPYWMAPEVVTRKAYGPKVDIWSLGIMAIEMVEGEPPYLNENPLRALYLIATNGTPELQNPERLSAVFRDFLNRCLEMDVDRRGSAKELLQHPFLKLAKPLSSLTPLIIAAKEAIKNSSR
Sequence of Calcium/calmodulin-dependent protein kinase kinase 1 (Homo sapiens) (Q8N5S9 whole entry, looked up): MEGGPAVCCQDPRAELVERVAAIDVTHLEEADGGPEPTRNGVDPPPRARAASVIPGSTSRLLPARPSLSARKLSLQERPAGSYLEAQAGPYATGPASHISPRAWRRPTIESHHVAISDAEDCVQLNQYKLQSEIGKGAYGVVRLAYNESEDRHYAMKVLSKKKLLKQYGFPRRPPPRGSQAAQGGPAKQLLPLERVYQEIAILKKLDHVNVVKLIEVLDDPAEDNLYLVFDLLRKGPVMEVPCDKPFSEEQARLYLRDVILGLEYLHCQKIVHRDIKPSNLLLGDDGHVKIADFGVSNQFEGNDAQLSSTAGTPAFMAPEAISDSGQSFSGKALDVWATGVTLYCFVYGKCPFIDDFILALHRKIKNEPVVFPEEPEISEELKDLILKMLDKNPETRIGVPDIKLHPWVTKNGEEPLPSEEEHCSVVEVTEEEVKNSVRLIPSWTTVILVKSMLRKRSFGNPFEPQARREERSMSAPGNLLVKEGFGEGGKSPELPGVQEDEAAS
Sequence of Mitogen-activated protein kinase kinase kinase kinase 4 (Homo sapiens) (O95819 2-1239 limits assumed): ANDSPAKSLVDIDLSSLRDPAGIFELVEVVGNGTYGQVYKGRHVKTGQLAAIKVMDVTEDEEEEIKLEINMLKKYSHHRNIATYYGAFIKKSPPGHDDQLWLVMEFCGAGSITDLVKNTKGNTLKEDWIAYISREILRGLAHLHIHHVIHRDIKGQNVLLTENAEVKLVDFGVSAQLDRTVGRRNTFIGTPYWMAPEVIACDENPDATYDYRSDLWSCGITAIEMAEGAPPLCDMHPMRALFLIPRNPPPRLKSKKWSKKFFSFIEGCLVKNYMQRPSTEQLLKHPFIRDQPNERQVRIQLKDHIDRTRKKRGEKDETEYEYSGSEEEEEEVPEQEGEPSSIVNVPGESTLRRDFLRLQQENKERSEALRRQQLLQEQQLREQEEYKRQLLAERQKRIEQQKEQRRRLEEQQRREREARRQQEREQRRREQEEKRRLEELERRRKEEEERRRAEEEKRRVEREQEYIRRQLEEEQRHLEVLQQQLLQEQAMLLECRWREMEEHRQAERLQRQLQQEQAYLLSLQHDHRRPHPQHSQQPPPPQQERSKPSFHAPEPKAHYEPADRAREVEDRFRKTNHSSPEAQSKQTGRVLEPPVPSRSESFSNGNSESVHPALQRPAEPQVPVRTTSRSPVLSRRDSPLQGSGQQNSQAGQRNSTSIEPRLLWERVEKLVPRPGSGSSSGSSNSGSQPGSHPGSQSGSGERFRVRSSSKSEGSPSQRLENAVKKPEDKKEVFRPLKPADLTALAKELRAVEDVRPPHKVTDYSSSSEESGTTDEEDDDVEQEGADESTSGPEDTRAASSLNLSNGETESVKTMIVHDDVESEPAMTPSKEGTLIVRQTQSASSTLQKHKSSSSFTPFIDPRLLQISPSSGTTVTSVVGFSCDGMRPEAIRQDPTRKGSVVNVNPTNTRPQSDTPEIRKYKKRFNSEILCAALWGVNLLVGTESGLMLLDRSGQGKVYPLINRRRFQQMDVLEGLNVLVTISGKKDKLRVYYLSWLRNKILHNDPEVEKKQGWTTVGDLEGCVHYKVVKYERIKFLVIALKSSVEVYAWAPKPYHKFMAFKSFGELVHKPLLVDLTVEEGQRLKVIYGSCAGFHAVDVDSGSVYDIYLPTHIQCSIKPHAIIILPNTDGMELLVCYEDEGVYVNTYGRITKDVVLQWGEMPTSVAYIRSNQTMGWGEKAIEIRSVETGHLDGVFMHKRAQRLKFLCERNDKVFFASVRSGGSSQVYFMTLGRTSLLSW
Sequence of Aurora kinase A (Homo sapiens) (O14965 whole entry): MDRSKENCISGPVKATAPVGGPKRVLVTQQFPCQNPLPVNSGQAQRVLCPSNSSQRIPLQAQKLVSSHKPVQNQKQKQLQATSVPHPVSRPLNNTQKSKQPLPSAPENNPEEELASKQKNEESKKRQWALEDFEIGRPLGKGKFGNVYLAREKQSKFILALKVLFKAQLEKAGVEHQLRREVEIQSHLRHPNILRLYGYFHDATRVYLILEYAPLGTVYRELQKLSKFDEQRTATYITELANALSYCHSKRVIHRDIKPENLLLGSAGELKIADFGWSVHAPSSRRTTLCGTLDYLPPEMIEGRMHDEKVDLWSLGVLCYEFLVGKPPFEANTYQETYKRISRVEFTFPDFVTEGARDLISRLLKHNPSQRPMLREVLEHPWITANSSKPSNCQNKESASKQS
Sequence of Mitogen-activated protein kinase kinase kinase 20 (Homo sapiens) (Q9NYL2 2-800 limits assumed): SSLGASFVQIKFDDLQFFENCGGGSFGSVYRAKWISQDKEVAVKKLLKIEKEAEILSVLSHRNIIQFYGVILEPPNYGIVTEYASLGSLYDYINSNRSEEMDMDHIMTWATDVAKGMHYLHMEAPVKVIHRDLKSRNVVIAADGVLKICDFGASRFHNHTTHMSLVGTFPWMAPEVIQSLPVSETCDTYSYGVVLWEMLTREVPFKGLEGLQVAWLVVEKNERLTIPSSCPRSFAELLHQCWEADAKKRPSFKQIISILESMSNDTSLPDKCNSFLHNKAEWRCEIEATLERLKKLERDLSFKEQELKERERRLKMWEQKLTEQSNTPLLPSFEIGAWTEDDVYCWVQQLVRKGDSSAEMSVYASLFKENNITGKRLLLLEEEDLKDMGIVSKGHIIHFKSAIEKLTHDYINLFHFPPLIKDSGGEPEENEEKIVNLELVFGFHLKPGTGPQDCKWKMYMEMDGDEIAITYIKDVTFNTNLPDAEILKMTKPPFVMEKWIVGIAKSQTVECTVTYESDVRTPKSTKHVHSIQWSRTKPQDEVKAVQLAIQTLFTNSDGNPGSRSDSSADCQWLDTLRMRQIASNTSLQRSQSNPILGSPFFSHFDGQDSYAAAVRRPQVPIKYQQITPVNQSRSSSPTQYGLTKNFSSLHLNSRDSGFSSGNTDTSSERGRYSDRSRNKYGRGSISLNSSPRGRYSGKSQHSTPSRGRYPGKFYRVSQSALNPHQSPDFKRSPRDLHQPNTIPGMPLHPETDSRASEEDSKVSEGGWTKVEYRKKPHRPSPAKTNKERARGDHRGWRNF
Sequence of Serine/threonine-protein kinase 16 (Homo sapiens) (O75716 whole entry): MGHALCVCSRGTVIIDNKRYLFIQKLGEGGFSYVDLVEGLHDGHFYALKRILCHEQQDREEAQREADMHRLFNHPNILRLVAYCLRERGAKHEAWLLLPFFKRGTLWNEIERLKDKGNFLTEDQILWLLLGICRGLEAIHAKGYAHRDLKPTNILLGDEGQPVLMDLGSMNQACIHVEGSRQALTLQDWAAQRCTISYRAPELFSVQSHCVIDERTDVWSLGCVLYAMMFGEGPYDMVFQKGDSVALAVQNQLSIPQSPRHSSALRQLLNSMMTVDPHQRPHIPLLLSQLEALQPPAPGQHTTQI

## Cc1c(-c2cc(Nc3cc4n(n3)CCN(C)C4)c(=O)[nH]n2)ccc(F)c1NC(=O)c1cc2ccccc2s1
Hepatocyte
  CLH: < 6 mL/min/kg
[1]
  EC50: > 5 µM
[2]
  inhibition: 50%
[3]
  inhibition: 6%
[4]
  inhibition: 5.8%
[5]
  inhibition: 1.9%
[6]
  inhibition: -7.5%
hERG (KCNH2)
  inhibition at 10 µM: 27%
Salmonella typhimurium [7]
  Activity: Non-toxic
Salmonella typhimurium [8]
  Activity: Non-toxic
[9]
  inhibition: 3%
[10]
  inhibition: 1.8%
[11]
  inhibition: 1.1%
[12]
  inhibition: -2.8%
[13]
  inhibition: -3.1%
[14]
  inhibition: -3.6%
[15]
  inhibition: -3.7%
[16]
  inhibition: -3.8%
[17]
  inhibition: 17.3%
[18]
  inhibition: 2.5%
[19]
  inhibition: 2.5%
[20]
  inhibition: 0.8%
[21]
  inhibition: 0.8%
[22]
  inhibition: 0.2%
[23]
  inhibition: 0.1%
[24]
  inhibition: -0.4%
[25]
  inhibition: -1.1%
[26]
  inhibition: -2.1%
[27]
  inhibition: -2.1%
[28]
  inhibition: 14.6%
[29]
  inhibition: 14.1%
[30]
  inhibition: 13.8%
[31]
  inhibition: 13.7%
[32]
  inhibition: 11%
[33]
  inhibition: 8%
[34]
  inhibition: 7.4%
[35]
  inhibition: 7.2%
[36]
  inhibition: 6.4%
[37]
  inhibition: 5.2%
[38]
  inhibition: 5%
[39]
  inhibition: 4.8%
[40]
  inhibition: 4%
[41]
  inhibition: -4.1%
[42]
  inhibition: -5.4%
[43]
  inhibition: 1.6%
